Test results taken from paper PMC2628638, “Catalytic inhibition of topoisomerase II by a novel rationally designed ATP-competitive purine analogue” (BMC Chemical Biology, 2009).

Tested on: HL-60 cells
Assay: Chromosome segregation assay (chromosome spreads)
Type: cell-based
Details: 10 μM with 1 mM caffeine for 2 hours after 6 hours release
Method: HL-60 cells were treated overnight for 16 hours with 2 μg/ml aphidicolin (Sigma-Aldrich corporation, St. Louis, MO) and released by washing twice PBS and resuspending into fresh medium. After 6 hours release the cells were treated with 1 mM caffeine (Lancaster Synthesis, Heysham, Lancashire, UK) and with catalytic topoisomerase II inhibitor or vehicle for 2 hours. Cells were washed once with PBS and incubated with 56 mM KCl hypotonic solution for 30 minutes. Cells were pelleted and carefully resuspended in Carnoy's fixative. Cells were pelleted as above, supernatant was removed and cells were resuspended again in 2 ml fixative. Chromosome spreads were prepared by dropping 50 μl cell suspension onto microscopy slides. The slides were allowed to dry and then stained for 10 seconds in Hoechst 33342 dye (Molecular Probes, Eugene, Oregon, prepared 1:1000 in PBS from 10 mg/ml stock). After drying, mounting media (Vectashield®, Vector Laboratories, Burlingame, CA) and a cover slip were added. Samples were observed using an immersion oil lens (100 ×, Nikon, Plan Apo VC) by fluorescence microscopy (Nikon Eclipse, E600) in the DAPI channel. Images were acquired using analySIS® software (Soft Imaging System GmbH, Münster, Germany). Representative images were converted to grayscale, inverted and contrast adjusted with Adobe Photoshop. Mitotic cells were categorized as described.

With `CCc1nc2nc(Nc3ccc4nc(OCCN5CCOCC5)ccc4c3)nc(NC(C)(C)C)c2[nH]1` [QAP 1] the “chromosome segregation at mitosis” value was “mitosis was also severely perturbed during anaphase”.
